Reference: patent US4435583A, “2-Halo-substituted monic acid A useful as antibacterial compounds” (Beecham Group p.l.c., priority 1981, dated 1984)
≈ marks a conversion by molar mass, not a printed value.

How the values were obtained:
Assay type in all cases: cell-based
[1] = system: M. suipneumoniae NCTC 10110; experiment: In vitro anti-mycoplasmal MIC; conditions: Friis broth, 0.9% agarose, 6 days, 37° C.
[2] = system: M. suipneumoniae ATCC 25095; experiment: In vitro anti-mycoplasmal MIC; conditions: Friis broth, 0.9% agarose, 6 days, 37° C.
M. gallisepticum S6 = experiment: In vitro anti-mycoplasmal MIC; conditions: Mycoplasmoides gallisepticum, 144 h, Friis broth, 0.9% agarose, 6 days, 37° C., read-out: MIC
M. suipneumoniae NB12 = experiment: In vitro anti-mycoplasmal MIC; conditions: Friis broth, 0.9% agarose, 6 days, 37° C.
Strep. faecalis I = experiment: MIC against human bacteria; conditions: Enterococcus faecalis, nutrient agar, 5% chocolated horse blood, 18 hours, 37° C., read-out: MIC
Protocol: (§1) The values were determined by serial dilutions in nutrient agar with 5% chocolated horse blood after incubations for 18 hours at 37° C.

Staph. aureus Oxford = experiment: MIC against human bacteria; conditions: nutrient agar, 5% chocolated horse blood, 18 hours, 37° C.
Protocol: as §1

Strep. 2788-B = experiment: MIC against human bacteria; conditions: nutrient agar, 5% chocolated horse blood, 18 hours, 37° C.
Protocol: as §1

E. coli NCTC 10418 = experiment: MIC against human bacteria; conditions: Escherichia coli, NCTC10418, nutrient agar, 5% chocolated horse blood, 18 hours, 37° C., read-out: MIC
Protocol: as §1

Past. multocida 1633 = experiment: MIC against human bacteria; conditions: nutrient agar, 5% chocolated horse blood, 18 hours, 37° C.
Protocol: as §1

[3] = system: Ps. aeruginosa NCTC 10662; experiment: MIC against human bacteria; conditions: Pseudomonas aeruginosa, NCTC10662, nutrient agar, 5% chocolated horse blood, 18 hours, 37° C., read-out: MIC
Protocol: as §1

[4] = system: Neisseria catarrhalis 1502; experiment: MIC against human bacteria; conditions: nutrient agar, 5% chocolated horse blood, 18 hours, 37° C.
Protocol: as §1

[5] = system: Haemophilus influenzae Wy21; experiment: MIC against human bacteria; conditions: Haemophilus influenzae, WY21, 18 h, nutrient agar, 5% chocolated horse blood, 37° C.
Protocol: as §1

Staph. aureus Russell = experiment: MIC against human bacteria; conditions: nutrient agar, 5% chocolated horse blood, 18 hours, 37° C.
Protocol: as §1

Strep. 641848-C = experiment: MIC against human bacteria; conditions: nutrient agar, 5% chocolated horse blood, 18 hours, 37° C.
Protocol: as §1

E. coli ESS = experiment: MIC against human bacteria; conditions: nutrient agar, 5% chocolated horse blood, 18 hours, 37° C.
Protocol: as §1

Sarcina lutea 8340 = experiment: MIC against human bacteria; conditions: Micrococcus luteus, nutrient agar, 5% chocolated horse blood, 18 hours, 37° C., read-out: MIC
Protocol: as §1

[6] = system: M. suipneumoniae J2206/183b; experiment: In vitro anti-mycoplasmal MIC; conditions: Friis broth, 0.9% agarose, 6 days, 37° C.
[7] = system: M. bovigenitalium ATCC 14173; experiment: In vitro anti-mycoplasmal MIC; conditions: 144 h, Friis broth, 0.9% agarose, 6 days, 37° C.
M. suipneumoniae Str.11 = experiment: In vitro anti-mycoplasmal MIC; conditions: Friis broth, 0.9% agarose, 6 days, 37° C.
M. dispar NCTC 10125 = experiment: In vitro anti-mycoplasmal MIC; conditions: 144 h, Friis broth, 0.9% agarose, 6 days, 37° C.

## CCOC(=O)C(F)=C(C)CC1OCC(CC2OC2C(C)C(C)O)C(O)C1O [Example 1, Ethyl-4-[5S-(2S,3S-epoxy-5S-hydroxy-4S-methylhexyl)-3R, 4R-dihydroxytetrahydropyran-2S-yl]-2-fluoro-3-methylbut-2(Z)-enoate]
[1]
  MIC: 0.5 µg/mL (≈ 1.28 µM)
[2]
  MIC: 0.5 µg/mL (≈ 1.28 µM)
M. gallisepticum S6
  MIC: 10 µg/mL (≈ 25.6 µM)
M. suipneumoniae NB12
  MIC: 0.5 µg/mL (≈ 1.28 µM)
Strep. faecalis I
  MIC: > 100 µg/mL
Staph. aureus Oxford
  MIC: 1.0 µg/mL (≈ 2.56 µM)
Strep. 2788-B
  MIC: 10.0 µg/mL (≈ 25.6 µM)
E. coli NCTC 10418
  MIC: > 100 µg/mL
Past. multocida 1633
  MIC: 1.0 µg/mL (≈ 2.56 µM)
[3]
  MIC: > 100 µg/mL
[4]
  MIC: 0.5 µg/mL (≈ 1.28 µM)
[5]
  MIC: 0.25 µg/mL (≈ 0.64 µM)
Staph. aureus Russell
  MIC: 1.0 µg/mL (≈ 2.56 µM)
Strep. 641848-C
  MIC: 5.0 µg/mL (≈ 12.8 µM)
E. coli ESS
  MIC: 5.0 µg/mL (≈ 12.8 µM)
Sarcina lutea 8340
  MIC: > 100 µg/mL
[6]
  MIC: 0.5 µg/mL (≈ 1.28 µM)
[7]
  MIC: 0.025 µg/mL (≈ 0.064 µM)
M. suipneumoniae Str.11
  MIC: 0.5 µg/mL (≈ 1.28 µM)
M. dispar NCTC 10125
  MIC: 0.1 µg/mL (≈ 0.256 µM)
